The subject of series [1] is Human neuroblastoma cells. The experiment in a line: growth/viability of neuroblastoma cells with or without MYCN-amplification. The note with it: 6.25 μM, 24 hrs.
Experimental: Cell proliferation/viability/metabolic activity was measured using the WST-1 assay. B) Human neuroblastoma cells with or without MYCN-amplification where treated with 6.25 μM MYCMI-7 or 64 μM 10058-F4 for 24 hrs. […] For the WST-1 assays the average of three different experiments performed in triplicates is shown.
Cell growth and viability assays: Cell growth and viability was estimated in triplicates with WST-1 (Roche) or Resazurin sodium salt (Sigma-Aldrich) assays in medium at 37° C. and 5% CO2 for 2 hours after which absorbance or fluorescence, respectively, was measured with an Omega Fluostar (BMG Labtech) in a 96 well plate format. Cell viability by the Cyt60 assay was carried out as in manufacturers' protocol.
The test system of series [2] is MDA-MB-231 xenograft tumors. The experiment in a line: MDA-MB-231 xenograft.
Experimental: A) Tumor growth of MDA-MB-231 xenografts in mice injected with 6.25 mg/kg MYCMI-7 or vehicle intratumorally twice a week until sacrificed. Tumor growth was monitored by measuring tumor size (mm^3) every 4th day. B) Survival curve of the mice in A) sacrificed when the tumors reached a volume of 1000 mm^3. C) Immunohistochemistry staining for MYC and apoptosis marker caspase 3 in MDA-MB-231 tumor tissue from vehicle- and MYCMI-7 treated animals at end point, D) Immunofluorescence staining of proliferation and apoptosis markers Ki67 and TUNEL, respectively, in MDA-MB-231 xenograft tumor tissue from vehicle- and MYCMI-7 treated animals at end point. E) MYCN-amplified SK-N-DZ neuroblastoma xenograft mice injected with 6.25 mg/kg MYCMI-7 or vehicle intratumorally twice a week until sacrificed. Tumor growth was monitored by measuring tumor volume (ml) daily. F) Survival curve of mice in E) sacrificed at a tumor volume of 1500 mm^3. G-H) H&E (G) and MYCN IHC (H) stainings of SK-N-DZ xenograft tumor tissue from vehicle- and MYCMI-7 treated animals at end point. A-H) At the end points, the last injection was done 3 hrs before sacrifice. Images were taken at 10× or 40× magnification.
For the xenograft transplantation mouse tumor models of breast cancer and neuroblastoma, 6-8 weeks old NOD/SCID mice (Taconic) or NMRI nu/nu (Scanbur) were injected s.c. with 5×10^6 MDA-MB-231 breast cancer cells or MYCN-amplified SK-N-DZ neuroblastoma cells. When tumors reached a size of 100-200 mm^3, mice started receiving treatment (6.25 mg/kg MYCMI-7) administered intratumorally (50 ml) twice per week. The last dose was administered 3 hrs before termination. Mice were sacrificed when the tumors had reached as size of 1000 mm^3 (MDA-MB-231) or 1500 mm^3 (SK-N-DZ). Tumors were collected and frozen in OCT (Cryomount, Histolab) or fixed in buffered 4% formaldehyde solution (Histolab) and paraffin-embedded.
Immunohistochemistry andimmunofluorescence: Apoptosis was visualized at the single-cell level on tumor cryosections using the TUNEL method using the In Situ Cell Death Detection Fluorescein-Roche kit and analyzed by fluorescence microscopy. Briefly, tumor cryosections were fixed in 4% paraformaldyde (PFA) and the assay was performed following the instructions from the manufacturer. Negative controls were run using the reagent without the TdT enzyme. Samples were mounted using Vectashield mounting medium (Vector) and DAPI was used as nuclear counterstaining. […] Visualization and image acquisition was done in a Zeiss microscope, and for panoramic views by a Vectra imaging system. For quantification, areas with positive TUNEL and Ki67 staining were measured using Image J software.
Series [3] has as its system primary patient derived glioblastoma cells. As to the kind of experiment: primary glioblastoma cultures, resazurin assay. To be noted: 42 patients, 2D cultures, 72 hours.
Experimental: A) Primary glioblastoma samples from 42 patient biopsies were cultured for 72 hours in presence of MYCMI-7 at indicated doses and cell growth was measured by the resazurin assay.
Viability measurements in glioblastoma initiating cell cultures: The adherent human glioblastoma initiating cell cultures (2) were seeded on laminin-coated 384-well microplates (BD Falcon Optilux #353962). […] Cell cultures (45 for screen 2 and 24/29 for screen 3) were plated one day prior to treatment using a Multidrop plate dispenser (ThermoScientific). Drugs were transferred using an ECHO550 non-contact liquid dispenser (Labcyte, USA) to a 384 standard dispensing plate. The substances were subsequently diluted in medium and lifted with a 384 head and a Janus MTD liquid dispenser (PerkinElmer, USA) to the cell plates. The screening experiment was assayed for viability using resazurin (R7017, Sigma Aldrich) after 72 hours of treatment as previously described (3), and detected by a fluorescent plate reader (EnVision multilabel reader, PerkinElmer) at excitation and emission wavelengths of 535/595 nm. As a negative control, DMSO vehicle was added at 4 different concentrations (16 wells/plate) and doxorubicin was used as a positive control (one 11-dose response curve on each plate). Each treatment dose was mapped to their individual exact DMSO concentration for normalization. […]
Series [4] deals with Purified AML cells from spleens of moribund mice. The experiment in a line: purified MYC/BCL-XL AML cells in culture. The note with it: Mus musculus.
The next series has as its system P493-6 cells. The experiment in a line: cell cycle distribution by flow cytometry, P493-6. The note with it: 5 μM, 48 hours. The format is cell-based. As to the method: FIG. 4: MYCMI-7 induces apoptosis in malignant cells and growth arrest in normal cells. A) Cell cycle distribution analysis by flow cytometry of MYC-regulated P493-6 cells and normal rat embryo fibroblasts (REFs). Left panel, P493-6 synchronized in G0 by 24 hours treatment of […] doxycycline. Doxycycline was removed and the cells were harvested 48 hours after the addition of fresh medium containing DMSO or 5 μM MYCMI-7. Right panel, flow cytometry analysis of normal REFs treated with DMSO or 5 μM MYCMI-7. B) Apoptosis assay using the Cell Death Detection ELISA^plus kit. Left panel, immortalized Rat1 fibroblasts with different MYC status after 24 hours of 5 μM MYCMI-7 treatment, middle panel and right panels, normal REFs and normal peripheral blood lymphocytes, respectively, after 24 and 48 hours of 5 μM MYCMI-7 treatment. […] Viability was measured by trypan blue exclusion assay. F) Cell growth measured with Cyt62 assay of primary normal human epidermal melanocytes (NHEM) treated for 72 hours with MYCMI-7, G) Viability measured by trypan blue exclusion assay of NHEM after treatment for 72 hours with MYCMI-7.
Flow cytometry: P493-6 cells were synchronized using 1 μg/ml doxycycline. […] Cells were stained with propidium iodide (Sigma) and 1×10^4 cells per treatment were analyzed using a FACScan and CellQuestPro (Becton Dickinson). […]

Series [5] relates to primary normal human epidermal melanocytes (NHEM). The experiment in a line: cell growth and trypan blue viability, NHEM. The format is cell-based. To be noted: 72 hours. The protocol:
(§1) FIG. 4: MYCMI-7 induces apoptosis in malignant cells and growth arrest in normal cells. A) Cell cycle distribution analysis by flow cytometry of MYC-regulated P493-6 cells and normal rat embryo fibroblasts (REFs). Left panel, P493-6 synchronized in G0 by 24 hours treatment of […] doxycycline. Doxycycline was removed and the cells were harvested 48 hours after the addition of fresh medium containing DMSO or 5 μM MYCMI-7. Right panel, flow cytometry analysis of normal REFs treated with DMSO or 5 μM MYCMI-7. B) Apoptosis assay using the Cell Death Detection ELISA^plus kit. Left panel, immortalized Rat1 fibroblasts with different MYC status after 24 hours of 5 μM MYCMI-7 treatment, middle panel and right panels, normal REFs and normal peripheral blood lymphocytes, respectively, after 24 and 48 hours of 5 μM MYCMI-7 treatment. C) Measurement of viability and apoptosis by Apo-Tox Glo Triplex assay in A375 melanoma cells after 3 days of treatment with MYCMI-7 with the indicated concentrations. […] E) NHDFs treated with 3 μM MYCMI-7 for 72 hrs. Viability was measured by trypan blue exclusion assay. F) Cell growth measured with Cyt62 assay of primary normal human epidermal melanocytes (NHEM) treated for 72 hours with MYCMI-7, G) Viability measured by trypan blue exclusion assay of NHEM after treatment for 72 hours with MYCMI-7.

The test system of a further series is MDA-MB-231. The experiment in a line: MDA-MB-231 cells in cell culture. The format is cell-based. To be noted: Homo sapiens. The protocol: We next studied the effects of MYCMI-7 in a xenograft model of the human basal-like breast cancer cell line MDA-MB-231. The cells were highly sensitive to MYCMI-7 treatment in cell culture (data not shown), with a GI50 around 1 μM.

The next series relates to A375 melanoma cells. The experiment in a line: Apo-Tox Glo Triplex assay, A375. The format is cell-based. The note with it: 3 days of treatment. As to the method:
as §1

The next series concerns p53 expression. The experiment in a line: p53 expression by western blot. The format is cell-based. To be noted: 5 μM, HCT116 and Kelly cells. The protocol: A) Measurement of MYC mRNA expression by RTqPCR after treatment with MYCMI-7 and different topoisomerase inhibitors at indicated concentrations. […] D) Western blot analysis of p53 and p21 expression after exposure to 5 μM MYCMI-7, ellipticine or camptothecin (CPT) in HCT116 cells. E) Western blot analysis of phospho-ATM, total ATM and p53 expression after exposure to indicated concentrations of MYCMI-7 and ellipticine in A375 cells after 3 hrs treatment.
(§2) For western blot equal amounts of proteins ([…]) were separated on a 4-12% SDS-PAGE gel. Proteins were transferred to Immobilion-P membrane (Millipore) and detected by immunostaining and chemoluminescence (Immobilion western HRP substrate; Millipore). For immunoprecipitations 500-1000 μg of protein was used. […] Briefly, cells were crosslinked with 1% formaldehyde on ice for 6 minutes. Nuclear chromatin was sonicated on ice to fragments from 0.3 kb to 0.5 kb. Nuclear chromatin equivalent to 2.5×10^7 cells was immunoprecipitated with 2 μg antibody.
In general terms: Immunoblotting shows a protein as a band on a membrane.

The subject of series [6] is Burkitt's lymphoma cell lines. As to the kind of experiment: growth of Burkitt's lymphoma cell lines. The format is cell-based. The protocol:
Cell culture and transfection: HeLa, MCF7, MDA-MB-231, U20S, HCT116, SK-N-F1, SK-N-RA, SK-N-AS, COS-7, Rat1 fibroblasts (Tgrl, H015.19 and HOMYC3), primary rat embryonic fibroblasts (REFs) were maintained in DMEM and Kelly, IMR-32, SK-N-DZ, P493-6, Daudi, CA46 and Ramos were kept in RPMI. In addition, the medium for H015.19 and primary REFs contained 1% sodium pyruvate. […] U20S-MYC-ER cell lines were cultured in phenol-red free DMEM and treated with 100 nM 4-hydroxytamoxifen (4-OHT) (Sigma-Aldrich) to activate MYC-ER. […] Transfection of HeLa cells was performed using Lipofectamine 2000 reagent (Invitrogen) according to manufacturer's instructions. For transfection of 293-T, U20S and REFs, FuGene6 (ROCHE) was used in accordance with manufacturer's recommendations. The proteasome inhibitor Z-leu-leu-leu-H aldehyde ([…]) (Peptides International) was used at 40 μM concentration.

The next series deals with T1, MYCN (Homo sapiens, UniProt P04198).
T1 construct: endogenous in cells; host or cells: Kelly neuroblastoma cells
T1 sequence (P04198 whole entry): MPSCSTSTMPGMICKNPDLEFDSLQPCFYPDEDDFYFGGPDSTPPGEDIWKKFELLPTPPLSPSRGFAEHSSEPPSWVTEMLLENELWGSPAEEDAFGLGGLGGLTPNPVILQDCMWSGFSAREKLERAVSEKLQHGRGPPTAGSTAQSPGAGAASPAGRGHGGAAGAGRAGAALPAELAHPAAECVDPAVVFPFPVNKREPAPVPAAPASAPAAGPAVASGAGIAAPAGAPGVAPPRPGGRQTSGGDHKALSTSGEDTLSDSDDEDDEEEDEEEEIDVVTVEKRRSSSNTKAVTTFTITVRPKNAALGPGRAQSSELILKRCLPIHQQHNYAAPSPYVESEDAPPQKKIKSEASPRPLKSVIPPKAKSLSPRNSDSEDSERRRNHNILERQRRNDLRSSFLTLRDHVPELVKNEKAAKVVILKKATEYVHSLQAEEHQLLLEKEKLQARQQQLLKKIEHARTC
As to the kind of experiment: MYCN expression in Kelly neuroblastoma cells. The format is cell-based. As to the method:
as §2

Setting [7] is: 6.25 mg/kg intratumoral twice weekly.

SMILES strings stand for the structures.

Broadly, the GI50 is the concentration at which growth is held to half of that of the control. Read a low GI50 as more potent growth inhibition.

Consider `CCN(CC)CC[n+]1ccc2c(C)c3[nH]c4ccccc4c3c(C)c2c1` [MYCMI-7, 2-(5,11-Dimethyl-6H-25-pyrido[4,3-b]carbazol-2-yl)-N,N-diethylethanamine bromide], for which, in series [1], the “effect in MYCN-amplified versus non-amplified neuroblastoma cells” value is reported as “significantly stronger”; the “tumor growth and viability in all neuroblastoma cell lines” value is “reduced tumor growth and viability”. In series [2] (setting [7]), the survival result is reported as “significantly increased survival” and the tumor growth entry is “slowed down considerably”. Further, in series [2] (mouse, in vivo), the “H&E staining of tumor areas” value is reported as “extensive necrosis/apoptosis”, the “MYC expression in tumors (IHC)” value is given as “reduced expression of MYC”, the TUNEL staining entry is recorded as “increased TUNEL staining” and the “caspase 3 expression in tumors (IHC)” value is given as “increased caspase 3 expression”. Besides, the “proliferation and microvascular density (Ki67, CD31)” value in series [2] (mouse, in vivo) is “reduced proliferation and microvascular density”. Moreover, the GI50 result in series [3] is reported as “submicromolar range”. Besides, the 50% growth inhibitory concentration (GI50) in series [4] was below 1 µM. Further, in the series with P493-6 cells, the “G1/S ratio compared to DMSO” value is given as “higher G1/S ratio” and the “cell death (sub-G1 cells)” value is “strongly induced cell death”. For the same molecule, in series [5], the “cell death (trypan blue)” value is listed as “did not induce cell death” and the metabolic activity entry is on record as “reduced metabolic activity”. The molecule also showed a GI50 in the series with MDA-MB-231 of around 1 µM. Also, in the series on A375 melanoma cells, the GI50 entry is reported as “nanomolar range” and the “apoptosis (caspase activation)” value is “induced apoptosis in a dose-dependent manner”. Moreover, the p53 expression result in the series on p53 expression (early (3 hrs)) is reported as “no effect”. Further, in the series with p53 expression (late (24 hrs)), the p53 expression entry is “only a minor increase”. In [6], the “growth of three Burkitt's lymphoma cell lines” value is “strongly reduced growth”. Further, the “Expression of MYCN” value at MYCN is given as “reduced”.

The values are drawn from patent US20250122193A1, “NOVEL PYRIDOCARBAZOLIUM COMPOUNDS AND MEDICAL USES THEREOF” (MyCural Therapeutics, priority 2021, published 2025).
